Common to all, as to assay type: biochemical
The target in experiment [1] is T1, caspase-3 (Homo sapiens, UniProt P42574).
T1 construct: as the catalytic domain consisting of large p20 and small p10 subunits without prodomain; made in house
T1 sequence (P42574 29-175 limits assumed): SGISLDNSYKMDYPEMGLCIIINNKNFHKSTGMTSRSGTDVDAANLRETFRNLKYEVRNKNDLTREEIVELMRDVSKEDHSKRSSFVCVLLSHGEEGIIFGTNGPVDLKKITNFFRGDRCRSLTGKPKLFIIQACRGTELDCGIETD
T1 sequence (P42574 176-277 limits assumed): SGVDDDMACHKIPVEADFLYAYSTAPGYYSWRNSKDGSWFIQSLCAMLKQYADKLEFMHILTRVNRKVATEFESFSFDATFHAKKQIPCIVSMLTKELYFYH
Put plainly: Caspase-3 enzymatic assay with divalent R110 substrates. The protocol:
(§1) The in vitro enzymatic caspase assays utilize synthetic tetrapeptide substrates labeled with the fluorophores Rhodamine110 (R110) or 7-amino-4-methylcoumarin (AMC) at the P1 aspartic acid (Asp) residue. All assays were performed in 384-well plates in 12 µL reaction volume consisting of enzyme, substrate and indicated concentration of inhibitor or DMSO in assay buffer (50 mM HEPES [pH 7.0], 25 mM MgSO4, 0.5 mM EGTA, 5 mM Glutathione (GSH), 0.01% Triton X-100 containing 0.1% Bovine Gamma Globulin (BGG)). All inhibitors were serially diluted in 100% DMSO prior to dilution in assay buffer and transfer to assay plate. DMSO was diluted into assay buffer similarly for blank wells (no enzyme or compound) and final DMSO concentration was 1%. The concentration of caspase-6 used in enzymatic reactions typically varied between 1–10 nM depending on substrate used. Unless otherwise indicated, substrate concentration was within 3-fold of the determined Kmapparent (5 µM (Ac-VEID)2R110 [Kmapp = 8 µM]; 5 µM (Ac-DEVD)2R110 [Kmapp = 8 µM]; 25 µM (Ac-IETD)2R110 [Kmapp = 70 µM]; 25 µM (Ac-WEHD)2R110 [Kmapp = 70 µM]; 10µM Ac-VEID-AMC [Kmapp = 16µM]; 5 µM Ac-VEID-R110 [Kmapp = 8 µM]). The concentration of substrate utilized in selectivity assays for each caspase isoform was also held as close to Kmapparent as reasonably achievable (Table S1). Caspases-3 and -7 were expressed and purified at Genentech as the catalytic domain consisting of large p20 and small p10 subunits without prodomain. For all caspase enzymatic assays, the reaction plate was incubated at room temperature for 40 minutes and then read on Envision (Perkin Elmer) fluorescent plate reader at excitation/emission wavelengths of 485/535 nm (R110) or 350/450 nm (AMC).
The endpoint fluorescent emission (RFU) in each well was plotted as a function of inhibitor concentration and the 50% inhibition (IC50) values were determined using a nonlinear least squares fit of the data to a four parameter equation using Prism 5.0 software (GraphPad Software, San Diego, CA). […]

The target in experiment [2] is T2, caspase-7 (Homo sapiens, UniProt P55210).
T2 construct: as the catalytic domain consisting of large p20 and small p10 subunits without prodomain; made in house
T2 sequence (P55210 24-198 limits assumed): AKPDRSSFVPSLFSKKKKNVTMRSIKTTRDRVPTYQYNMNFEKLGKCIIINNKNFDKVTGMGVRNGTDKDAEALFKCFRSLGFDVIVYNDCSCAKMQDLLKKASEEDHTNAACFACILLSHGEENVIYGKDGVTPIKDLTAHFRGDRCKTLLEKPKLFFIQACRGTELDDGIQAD
T2 sequence (P55210 207-303 limits assumed): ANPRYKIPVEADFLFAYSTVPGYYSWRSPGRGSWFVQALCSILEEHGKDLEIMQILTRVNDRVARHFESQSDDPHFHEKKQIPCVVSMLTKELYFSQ
Briefly: Caspase-7 enzymatic assay with divalent R110 substrate. The note with it: caspase-7, (DEVD)2R110 substrate. The protocol:
as §1, with “The concentration of caspase-6 used in enzymatic reactions typically varied between 1–10 nM depending on substrate used.” left out, “The concentration of substrate utilized in selectivity assays for each caspase isoform was also held as close to Kmapparent as reasonably achievable (Table S1). Caspases-3 and -7 were expressed and purified at Genentech as the catalytic domain consisting of large p20 and small p10 subunits without prodomain.” left out, “(AMC). […]” for “(AMC).”

Experiment [3] deals with T3, caspase-6 (Homo sapiens, UniProt P55212).
T3 construct: Residues 24-179 and 194-293 from caspase-6 cDNA (Origene) were cloned into pET-24b and pET-23b vectors; 6x histidine tag (C); made in house; host or cells: E. coli BL21 (DE3) pLysS
T3 sequence (P55212 24-179): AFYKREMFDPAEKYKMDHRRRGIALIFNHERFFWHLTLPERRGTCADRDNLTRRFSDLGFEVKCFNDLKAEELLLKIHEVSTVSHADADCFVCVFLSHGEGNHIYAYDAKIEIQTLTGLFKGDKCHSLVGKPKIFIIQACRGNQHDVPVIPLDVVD
T3 sequence (P55212 194-293): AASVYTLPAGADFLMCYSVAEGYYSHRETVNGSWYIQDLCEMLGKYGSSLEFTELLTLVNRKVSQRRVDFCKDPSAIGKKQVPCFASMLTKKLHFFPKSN
Put plainly: Cleavage of Lamin A by purified human caspase-6 (western blot). Conditions: 100 µM concentration. The protocol:
The assay to monitor cleavage of Lamin A by purified human caspase-6 is described in Experimental Procedures S1.
Cleavage of Lamin A by purified human Caspase-6: Recombinant caspase-6 was prepared at 6.6 nM final concentration in assay buffer (40 mM HEPES [pH 7.2], 100 mM NaCl, 1 mM EDTA, 2 mM DTT, 0.1% CHAPS, 3% DMSO), and pre-incubated at 37 °C with increasing concentrations (as indicated) of the compound to be assayed. After 30 minutes, GST-tagged Lamin A substrate (Abnova, Cat# H00004000-P01) was added to the reaction mix at a final concentration of 0.33 µM and the incubation was continued for 2 h at 37 °C. Samples were boiled for 5 min to terminate the proteolytic cleavage reaction before they were resolved by SDS-PAGE (10-20% Tris-glycine gel) and transferred to nitrocellulose. The blot was probed with mouse anti-Lamin A antibody (Abnova # H00004000-B01P) and detected with IRDye800 anti-mouse antibody (LI-COR #926-32210). […] Imaging was done on the LI-COR Odyssey® Infrared Imaging System using the 800 nm channel.
(In general: In western blotting, separated proteins are transferred to a membrane and probed.)

The IC50 is the point on the concentration scale where inhibition reaches its midpoint. Read a low IC50 as higher potency.

A value given as a limit tells only on which side of the number the result lay.

For `COc1ccc(-c2cc(C(=O)N[C@@H](CO)Cc3cccc(C#N)c3)co2)cc1OC` [Compound 3], the IC50 in experiment [1] (caspase-3, (DEVD)2R110 substrate) was above 100 µM; in experiment [1] (caspase-3, (VEID)2R110 substrate) it was above 100 µM; in experiment [2], above 100 µM. Moreover, the “inhibition of caspase-6 cleavage of recombinant Lamin A” value in experiment [3] is listed as “did not inhibit”.

Source of the values: publication PMC3515450, “Mechanistic and Structural Understanding of Uncompetitive Inhibitors of Caspase-6” (PLoS ONE, 2012).
